Key:
[1] = biological target: T1, CCR4 (Homo sapiens, UniProt P51679); settings: cited from earlier work
T1 construct: expressed in transfected cells
T1 sequence (P51679 1-360): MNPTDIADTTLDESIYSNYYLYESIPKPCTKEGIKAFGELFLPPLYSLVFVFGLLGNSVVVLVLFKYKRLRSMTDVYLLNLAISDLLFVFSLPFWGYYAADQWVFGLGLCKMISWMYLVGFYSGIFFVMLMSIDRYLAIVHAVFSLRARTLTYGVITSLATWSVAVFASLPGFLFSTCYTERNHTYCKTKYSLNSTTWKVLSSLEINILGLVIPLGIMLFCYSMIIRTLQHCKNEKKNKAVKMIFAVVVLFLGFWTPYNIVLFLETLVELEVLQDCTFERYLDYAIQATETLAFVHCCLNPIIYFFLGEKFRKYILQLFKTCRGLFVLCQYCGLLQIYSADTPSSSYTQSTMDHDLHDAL

[2] = 28-Day GLP oral (capsule) toxicity study in the Beagle dog with 14-day recovery; format: in vivo
Protocol: A 28-Day GLP oral (capsule) toxicology study was conducted with […]-001 in the male and female beagle dog, and hematology effects were observed, with […]-001 administered twice-daily (at least 7 hours apart) by oral capsule for 28 days. A subset of treated animals was evaluated after a 14-day recovery period. [table] [table]

[3] = biological target: CXCR4 (Homo sapiens, UniProt P61073); settings: SDF-1α dose/response in calcium flux assay with increasing amounts of X4P-001; cited from earlier work
[4] = test system: granulocyte-macrophage (CFU-GM), erythroid (BFU-E) and multipotential (CFU-GEMM) progenitor cells; assay: Progenitor/stem cell mobilization in mice after single subcutaneous injection; format: in vivo, C3H/HeJ mice
[5] = biological target: T2, CCR1 (Homo sapiens, UniProt P32246); settings: cited from earlier work
T2 construct: expressed in transfected cells; host or cells: HEK293F
T2 sequence (P32246 1-355): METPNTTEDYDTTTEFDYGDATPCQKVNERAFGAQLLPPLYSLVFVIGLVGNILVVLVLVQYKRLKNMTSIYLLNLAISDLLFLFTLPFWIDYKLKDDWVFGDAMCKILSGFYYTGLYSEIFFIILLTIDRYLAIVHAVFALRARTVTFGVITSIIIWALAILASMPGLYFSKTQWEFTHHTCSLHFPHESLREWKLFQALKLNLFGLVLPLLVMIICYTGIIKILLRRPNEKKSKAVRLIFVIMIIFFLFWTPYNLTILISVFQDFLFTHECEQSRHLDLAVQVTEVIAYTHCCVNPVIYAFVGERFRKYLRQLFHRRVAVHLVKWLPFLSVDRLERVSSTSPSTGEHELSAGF

[6] = test system: white blood cells (WBC), neutrophils, lymphocytes; assay: Hematologic effects of a single oral dose in the male Beagle dog; format: in vivo
Protocol: Three fasted male Beagle dogs received a single dose of […]-001 in aqueous solution by oral gavage at dose levels of 5, 15, and 35 mg/kg (1 dog per dose level) in a volume of 1 mL/kg. Blood samples (approximately 3 mL each) were obtained at multiple timepoints from each animal by direct venipuncture of the jugular vein and collected using Vacutainer® tubes containing K3EDTA as the anticoagulant. […] Blood samples were stored at ambient room temperature prior to automated differential analysis Body weights were determined prior to dosing on the day of test article administration. […] Hematology parameters included the following: White Blood Cell Count (WBC) Differential white blood cell count (absolute and relative) • Neutrophil • Lymphocytes • Monocytes • Eosinophils • Basophils • Large Unstained Cells (LUC) • Hematocrit (HCT) • Hemoglobin (HGB) • Mean Corpuscular Hemoglobin (MCH) • Mean Corpuscular Hemoglobin Concentration (MCHC) • Mean Corpuscular Volume (MCV) • Platelet Count (PLT) • Red Blood Cell Count (RBC) Results

[7] = biological target: T3, CCR2b (Homo sapiens, UniProt P41597); settings: cited from earlier work
T3 construct: expressed in transfected cells
T3 sequence (P41597 1-360 isoform P41597-2): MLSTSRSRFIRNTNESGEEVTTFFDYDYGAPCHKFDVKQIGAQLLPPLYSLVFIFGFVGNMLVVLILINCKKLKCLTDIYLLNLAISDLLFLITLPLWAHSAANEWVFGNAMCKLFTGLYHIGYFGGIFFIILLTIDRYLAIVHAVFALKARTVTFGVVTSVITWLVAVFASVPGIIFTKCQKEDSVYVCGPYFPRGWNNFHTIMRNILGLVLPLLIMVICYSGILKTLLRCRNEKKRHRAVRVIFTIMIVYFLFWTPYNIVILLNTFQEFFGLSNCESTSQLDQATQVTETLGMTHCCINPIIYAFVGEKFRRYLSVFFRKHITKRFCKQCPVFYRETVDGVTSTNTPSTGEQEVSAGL

[8] = F, 10 mg/kg/d, termination, †p < 0.05
[9] = F, 30 mg/kg/d, termination, †p < 0.05
[10] = F, 100 mg/kg/d, termination, †p < 0.05
[11] = M, 100 mg/kg/d, termination, †p < 0.05
[12] = single oral dose 5, 15, 35 mg/kg

CXCR4, sequence (P61073 whole entry): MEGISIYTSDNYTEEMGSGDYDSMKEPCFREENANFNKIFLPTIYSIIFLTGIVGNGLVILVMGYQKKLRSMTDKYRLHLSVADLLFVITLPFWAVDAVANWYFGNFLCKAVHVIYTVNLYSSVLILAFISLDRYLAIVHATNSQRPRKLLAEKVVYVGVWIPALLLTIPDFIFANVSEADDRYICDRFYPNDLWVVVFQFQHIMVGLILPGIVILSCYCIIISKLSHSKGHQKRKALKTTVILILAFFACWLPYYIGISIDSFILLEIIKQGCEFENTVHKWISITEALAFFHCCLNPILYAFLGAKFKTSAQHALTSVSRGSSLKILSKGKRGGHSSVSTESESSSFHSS

**Q.** For `NCCCCN(Cc1nc2ccccc2[nH]1)[C@H]1CCCc2cccnc21` [X4P-001], which IC50 ([1]; CCR4, HEK293F-CCR4-Gαq15, TARC/CCL17, read-out: IC50 AMD11070) is on record?
**A.** > 50 µM

**Q.** And the “Inhibitory effect on TARC mediated calcium flux (CCR4)” value [1]?
**A.** little or no inhibitory effect

**Q.** And the Coagulation ([2]; 10 mg/kg/d, termination)?
**A.** No changes

**Q.** What about the reticulocytes ([2]; 10 mg/kg/d, termination) of the same molecule?
**A.** No changes

**Q.** And the Coagulation ([2]; 30 mg/kg/d, termination)?
**A.** No changes

**Q.** And the reticulocytes ([2]; 30 mg/kg/d, termination)?
**A.** No changes

**Q.** What about the Coagulation ([2]; 100 mg/kg/d, termination) of the same molecule?
**A.** No changes

**Q.** And the “lymphocytes (abs), incr” value ([2]; F, 10 mg/kg/d, termination)?
**A.** F incr 1.4x

**Q.** What about the “monocytes (abs), incr” value [2, 8] of the same molecule?
**A.** F incr 1.6x†

**Q.** And the “neutrophils (abs), incr” value [2, 8]?
**A.** F incr 1.9x†

**Q.** And the “lymphocytes (abs), incr” value [2, 9]?
**A.** F incr 1.6x†

**Q.** What about the “monocytes (abs), incr” value [2, 9] of the same molecule?
**A.** F incr 1.9x†

**Q.** What about the “neutrophils (abs), incr” value [2, 9] of the same molecule?
**A.** F incr 2.3x†

**Q.** And the “lymphocytes (abs), incr” value [2, 10]?
**A.** F incr 1.4x†

**Q.** What about the “monocytes (abs), incr” value [2, 10] of the same molecule?
**A.** F incr 2.4x†

**Q.** And the “neutrophils (abs), incr” value [2, 10]?
**A.** F incr 2.8x†

**Q.** What about the “reticulocytes, decr” value [2, 10] of the same molecule?
**A.** F decr 0.24x†

**Q.** What about the “lymphocytes (abs), incr” value ([2]; M, 10 mg/kg/d, termination) of the same molecule?
**A.** M incr 1.3x;

**Q.** What about the “monocytes (abs), incr” value ([2]; M, 10 mg/kg/d, termination) of the same molecule?
**A.** M incr 1.2x;

**Q.** What about the “neutrophils (abs), incr” value ([2]; M, 10 mg/kg/d, termination) of the same molecule?
**A.** M incr 1.2x;

**Q.** What about the “lymphocytes (abs), incr” value ([2]; M, 30 mg/kg/d, termination) of the same molecule?
**A.** M incr 1.6x;

**Q.** What about the “monocytes (abs), incr” value ([2]; M, 30 mg/kg/d, termination) of the same molecule?
**A.** M incr 1.3x;

**Q.** And the “neutrophils (abs), incr” value ([2]; M, 30 mg/kg/d, termination)?
**A.** M incr 1.2x;

**Q.** What about the “neutrophils (abs), incr” value ([2]; M, 100 mg/kg/d, termination) of the same molecule?
**A.** M incr 1.8x;

**Q.** And the “lymphocytes (abs), incr” value [2, 11]?
**A.** M incr 2.3x†;

**Q.** And the “monocytes (abs), incr” value [2, 11]?
**A.** M incr 1.9x†;

**Q.** What about the “All hematology results after the 14-day recovery period” value ([2]; only 100 mg/kg dose group evaluated) of the same molecule?
**A.** returned to within normal levels

**Q.** What about the “Mode of inhibition of CXCR4” value [3] of the same molecule?
**A.** allosteric inhibitor

**Q.** What about the “GEMM (CFU-GEMM), Mean” value ([4]; Table 7, progenitor cells per mL of blood, 1 hour post-injection, 1.5 mg/kg s.c.) of the same molecule?
**A.** 53.3

**Q.** What about the “BFU (BFU-E), Mean” value ([4]; Table 7, progenitor cells per mL of blood, 1 hour post-injection, 10 mg/kg s.c.) of the same molecule?
**A.** 268.1

**Q.** What about the “Nucleated Cellularity PBL-LD, Mean” value ([4]; Table 7 dose response, 1 hour post-injection, 20 mg/kg s.c.) of the same molecule?
**A.** 9.62e+06 mL⁻¹

**Q.** What about the “BFU (BFU-E), Mean” value ([4]; Table 8, progenitor cells per mL of blood, 5 mg/kg s.c., @ - 30″ (0.5 h)) of the same molecule?
**A.** 151.9

**Q.** What about the “BFU (BFU-E), Mean” value ([4]; Table 8, progenitor cells per mL of blood, 5 mg/kg s.c., @ - 60″ (1 h)) of the same molecule?
**A.** 144.3

**Q.** And the IC50 ([5]; CCR1, HEK293F-CCR1, MIP-1α/CCL3, read-out: IC50 AMD11070)?
**A.** > 50 µM

**Q.** And the “Inhibitory effect on MIP1α mediated calcium flux (CCR1)” value [5]?
**A.** little or no inhibitory effect

**Q.** And the “Peak elevations of WBC above baseline” value ([6]; 5 mg/kg dose level)?
**A.** 1.5 fold

**Q.** What about the “Total circulating WBC, neutrophils, and lymphocytes, increase” value ([6]; 5 mg/kg, all three cell counts) of the same molecule?
**A.** 1.47 × baseline

**Q.** And the “Lymphocytes, increase” value ([6]; 15 mg/kg)?
**A.** 2.9 ×

**Q.** And the “Neutrophils, increase” value ([6]; 15 mg/kg)?
**A.** 1.8 ×

**Q.** What about the “Lymphocytes, increase” value ([6]; 35 mg/kg) of the same molecule?
**A.** 1.9 ×

**Q.** What about the “Neutrophils, increase” value ([6]; 35 mg/kg) of the same molecule?
**A.** 2.7 ×

**Q.** What about the “Time at which increases were consistently apparent” value ([6]; 5, 15, and 35 mg/kg) of the same molecule?
**A.** 4 h

**Q.** What about the “Time of peak of increases” value ([6]; 5, 15, and 35 mg/kg, typically, occasionally earlier) of the same molecule?
**A.** ~12 h

**Q.** What about the “Peak elevations of WBC above baseline” value ([6]; 15 and 35 mg/kg dose levels) of the same molecule?
**A.** 1.8-2.9 fold

**Q.** What about the “WBC, neutrophil, and lymphocyte counts at 24 hours” value ([6]; 15 and 35 mg/kg, with evidence of return to baseline) of the same molecule?
**A.** remained elevated

**Q.** What about the Other hematological effects [6, 12] of the same molecule?
**A.** No other hematological effects

**Q.** And the “Time of maximal increases in WBC” value [6, 12]?
**A.** 4-12 hours post-dose

**Q.** What about the IC50 ([7]; CCR2b, HEK293F-CCR2b, MCP-1/CCL2, read-out: IC50 AMD11070) of the same molecule?
**A.** > 50 µM

**Q.** What about the “Inhibitory effect on MCP-1 mediated calcium flux (CCR2b)” value [7] of the same molecule?
**A.** little or no inhibitory effect

Source: patent publication US11219621B2, “Methods for treating immunodeficiency disease” (X4 Pharmaceuticals, Inc., priority 2015, dated 2022)
